Source: US20200306295A1, “METHOD AND DEVICE FOR ANNIHILATION OF Staphylococcus aureus” (priority 2017, published 2020)

System: 200 kinds of cytokines
Assay: Fold change of 200 cytokines in homogenized wound tissue
Assay type: in vivo, Balb/c mice
From the text: To quantify the physiological condition of the wound tissues, we measured the concentrations of 200 kinds of cytokines (Table. 1) from the supernatant of homogenized tissue solution. Cytokines are small secreted proteins released by cells and have specific effect on the interactions and communications between cells (25).
To initiate the formation of a skin wound, five groups (n=5) of eight-week old female Balb/c mice (obtained from Harlan Laboratories, Indianapolis, Ind., USA) were disinfected with ethanol (70%) and shaved on the middle of the back (approximately a one-inch by one-inch square region around the injection site) one day prior to infection as described from a reported procedure (3). To prepare the bacterial inoculum, an aliquot of overnight culture of MRSA USA300 was transferred to fresh Tryptic soy broth and shaken at 37° C. until an OD600 value of ˜1.0 was achieved. The cells were centrifuged, washed once with PBS, re-centrifuged, and then re-suspended in PBS. Mice subsequently received an intradermal injection (40 μL) containing 2.40×10^9 CFU/mL MRSA USA300.
One group of mice was left untreated (negative control). Each group of mice receiving a particular treatment regimen was housed separately in a ventilated cage with appropriate bedding, food, and water. […] Mice were treated twice daily (once every 12 hours) for three days, before they were humanely euthanized via CO2 asphyxiation 12 hours after the last dose was administered. The region around the skin wound was lightly swabbed with ethanol (70%) and excised. The tissue was subsequently homogenized in PBS. The homogenized tissue was then serially diluted in PBS before plating onto mannitol salt agar plates. Plates were incubated for at least 19 hours at 37° C. before viable MRSA CFU/mL were counted for each group. Outlier was removed based upon the Dixon Q Test.

OO [H2O2, hydrogen peroxide]
share of 200 cytokines with negative fold change vs untreated (blue light and H2O2-treated group): Over 85%
fold change of MBL-2 (mean) (cytokine MBL-2, group mean, wound tissue of MRSA-infected mice): −0.0587
fold change of Meteorin (mean) (cytokine Meteorin, group mean, wound tissue of MRSA-infected mice): 0.4850
fold change of NOV (mean) (cytokine NOV, group mean, wound tissue of MRSA-infected mice): −0.1756
fold change of Nope (mean) (cytokine Nope, group mean, wound tissue of MRSA-infected mice): −0.2914
fold change of OX40 Ligand (mean) (cytokine OX40 Ligand, group mean, wound tissue of MRSA-infected mice): 0.2366
fold change of Osteoactivin (mean) (cytokine Osteoactivin, group mean, wound tissue of MRSA-infected mice): 0.4709
fold change of P-Cadherin (mean) (cytokine P-Cadherin, group mean, wound tissue of MRSA-infected mice): −0.0660
fold change of Periostin (mean) (cytokine Periostin, group mean, wound tissue of MRSA-infected mice): −0.5519
fold change of PlGF-2 (mean) (cytokine PlGF-2, group mean, wound tissue of MRSA-infected mice): −0.0738
fold change of Progranulin (mean) (cytokine Progranulin, group mean, wound tissue of MRSA-infected mice): −0.6229
fold change of Prostasin (mean) (cytokine Prostasin, group mean, wound tissue of MRSA-infected mice): 1.1226
fold change of Renin 1 (mean) (cytokine Renin 1, group mean, wound tissue of MRSA-infected mice): −0.3457
fold change of TIM-1 (mean) (cytokine TIM-1, group mean, wound tissue of MRSA-infected mice): −0.1106
fold change of Testican 3 (mean) (cytokine Testican 3, group mean, wound tissue of MRSA-infected mice): −0.1883
fold change of Tryptase ε (mean) (cytokine Tryptase ε, group mean, wound tissue of MRSA-infected mice): 0.3620
fold change of 4-1BB (mean, wound tissue): −0.2733
fold change of 6Ckine (mean, wound tissue): −0.3474
fold change of ACE (mean, wound tissue): −0.8627
fold change of ADAMTS1 (mean, wound tissue): 0.1068
fold change of ALK-1 (mean, wound tissue): −0.1821
fold change of ANG-3 (mean, wound tissue): −0.1019
fold change of ANGPTL3 (mean, wound tissue): −0.1222
fold change of AR (mean, wound tissue): −0.1343
fold change of Activin A (mean, wound tissue): 0.0097
fold change of Adiponen (mean, wound tissue): −0.0278
fold change of Artemin (mean, wound tissue): 0.0433
fold change of Axl (mean, wound tissue): −0.1455
fold change of B7-1 (mean, wound tissue): 0.2808
fold change of BAFF R (mean, wound tissue): 0.0988
fold change of BLC (mean, wound tissue): −0.1960
fold change of BTC (mean, wound tissue): 0.9018
fold change of C5a (mean, wound tissue): 0.1618
fold change of CCL6 (mean, wound tissue): −0.3559
fold change of CCL28 (mean, wound tissue): −0.6841
fold change of CD6 (mean, wound tissue): −0.2795
fold change of CD27 (mean, wound tissue): 0.1670
fold change of CD27L (mean, wound tissue): 0.1373
fold change of CD30 (mean, wound tissue): −0.0510
fold change of CD30L (mean, wound tissue): −0.0733
fold change of CD36 (mean, wound tissue): −0.4456
fold change of CD40 (mean, wound tissue): −0.1007
fold change of CD40L (mean, wound tissue): −0.2549
fold change of CD48 (mean, wound tissue): −0.3656
fold change of CRP (mean, wound tissue): −0.2262
fold change of CT-1 (mean, wound tissue): −0.3499
fold change of CTLA4 (mean, wound tissue): −0.1747
fold change of CXCL16 (mean, wound tissue): −0.2162
fold change of Chemerin (mean, wound tissue): −0.2510
fold change of Chordin (mean, wound tissue): −0.0093
fold change of Clusterin (mean, wound tissue): 0.1123
fold change of Cystatin C (mean, wound tissue): 0.0313
fold change of DLL4 (mean, wound tissue): −0.0364
fold change of Decorin (mean, wound tissue): −0.0051
fold change of Dkk-1 (mean, wound tissue): −0.4175
fold change of Dtk (mean, wound tissue): −0.3288
fold change of E-Cadherin (mean, wound tissue): −0.1379
fold change of E-selectin (mean, wound tissue): −0.1083
fold change of EDAR (mean, wound tissue): 0.0841
fold change of EGF (mean, wound tissue): −0.2293
fold change of Endocan (mean, wound tissue): −0.0335
fold change of Endoglin (mean, wound tissue): −0.6886
fold change of Eotaxin (mean, wound tissue): 0.8584
fold change of Eotaxin-2 (mean, wound tissue): −0.5961
fold change of Epigen (mean, wound tissue): −0.1588
fold change of Epiregulin (mean, wound tissue): −0.2878
fold change of Fas (mean, wound tissue): −0.3001
fold change of Fas L (mean, wound tissue): −0.2203
fold change of Fcg RIIB (mean, wound tissue): 0.2388
fold change of Fetuin A (mean, wound tissue): −0.5133
fold change of Flt-3L (mean, wound tissue): −0.2615
fold change of Fractalkine (mean, wound tissue): 0.4416
fold change of G-CSF (mean, wound tissue): −0.4083
fold change of GITR (mean, wound tissue): −0.1455
fold change of GITR L (mean, wound tissue): −0.0425
fold change of GM-CSF (mean, wound tissue): −0.1960
fold change of Galectin-1 (mean, wound tissue): −0.1195
fold change of Galectin-3 (mean, wound tissue): 0.0550
fold change of Galectin-7 (mean, wound tissue): −0.3150
fold change of Gas 1 (mean, wound tissue): −0.7018
fold change of Gas 6 (mean, wound tissue): −0.3085
fold change of Granzyme B (mean, wound tissue): 0.2145
fold change of Gremlin (mean, wound tissue): −0.8057
fold change of H60 (mean, wound tissue): −0.0250
fold change of HAI-1 (mean, wound tissue): −0.0794
fold change of HGF (mean, wound tissue): 0.2749
fold change of HGF R (mean, wound tissue): 0.0240
fold change of I-TAC (mean, wound tissue): −0.1457
fold change of ICAM-1 (mean, wound tissue): −0.0362
fold change of IFNg (mean, wound tissue): −0.2366
fold change of IFNg R1 (mean, wound tissue): −0.2832
fold change of IGF-1 (mean, wound tissue): 0.2487
fold change of IGFBP-2 (mean, wound tissue): 0.0153
fold change of IGFBP-3 (mean, wound tissue): −0.2116
fold change of IGFBP-5 (mean, wound tissue): 0.0442
fold change of IGFBP-6 (mean, wound tissue): −0.2308
fold change of IL-1 R4 (mean, wound tissue): 0.0090
fold change of IL-1a (mean, wound tissue): 0.0141
fold change of IL-1b (mean, wound tissue): 0.2075
fold change of IL-1ra (mean, wound tissue): 0.1670
fold change of IL-2 (mean, wound tissue): −0.1860
fold change of IL-2 Ra (mean, wound tissue): 0.2015
fold change of IL-3 (mean, wound tissue): −0.1781
fold change of IL-3 Rb (mean, wound tissue): −0.0953
fold change of IL-4 (mean, wound tissue): −0.2011
fold change of IL-5 (mean, wound tissue): −0.3106
fold change of IL-6 (mean, wound tissue): −0.2775
fold change of IL-7 (mean, wound tissue): −0.0083
fold change of IL-7 Ra (mean, wound tissue): −0.4620
fold change of IL-9 (mean, wound tissue): 0.0482
fold change of IL-10 (mean, wound tissue): −0.1759
fold change of IL-12p40 (mean, wound tissue): 0.0200
fold change of IL-12p70 (mean, wound tissue): −0.1362
fold change of IL-13 (mean, wound tissue): −0.4855
fold change of IL-15 (mean, wound tissue): −0.1351
fold change of IL-17 (mean, wound tissue): 1.4006
fold change of IL-17B (mean, wound tissue): −0.2485
fold change of IL-17B R (mean, wound tissue): 0.0438
fold change of IL-17E (mean, wound tissue): −0.3214
fold change of IL-17F (mean, wound tissue): 0.6993
fold change of IL-20 (mean, wound tissue): −0.1274
fold change of IL-21 (mean, wound tissue): −0.5851
fold change of IL-22 (mean, wound tissue): −0.5330
fold change of IL-23 (mean, wound tissue): 0.1392
fold change of IL-28 (mean, wound tissue): 0.2046
fold change of IL-33 (mean, wound tissue): −0.6370
fold change of JAM-A (mean, wound tissue): −0.2998
fold change of KC (mean, wound tissue): −0.0602
fold change of Kremen-1 (mean, wound tissue): −0.4532
fold change of L-Selectin (mean, wound tissue): −0.1755
fold change of LIX (mean, wound tissue): −0.2304
fold change of LOX-1 (mean, wound tissue): 0.0229
fold change of Leptin (mean, wound tissue): −0.1401
fold change of Leptin R (mean, wound tissue): −0.1563
fold change of Limitin (mean, wound tissue): 0.5441
fold change of Lipocalin-2 (mean, wound tissue): −0.0669
fold change of Lungkine (mean, wound tissue): −0.0954
fold change of Lymphotactin (mean, wound tissue): 0.0191
fold change of MCP-1 (mean, wound tissue): 0.9431
fold change of MCP-5 (mean, wound tissue): −0.8808
fold change of MCSF (mean, wound tissue): −0.0002
fold change of MDC (mean, wound tissue): 0.5488
fold change of MFG-E8 (mean, wound tissue): −0.1414
fold change of MIG (mean, wound tissue): −0.1127
fold change of MIP-1a (mean, wound tissue): −0.3107
fold change of MIP-1b (mean, wound tissue): −0.4967
fold change of MIP-1g (mean, wound tissue): −0.0241
fold change of MIP-2 (mean, wound tissue): −0.0277
fold change of MIP-3a (mean, wound tissue): 0.3267
fold change of MIP-3b (mean, wound tissue): −0.1993
fold change of MMP-2 (mean, wound tissue): −0.5768
fold change of MMP-3 (mean, wound tissue): −0.0983
fold change of MMP-10 (mean, wound tissue): −0.1476
fold change of MadCAM-1 (mean, wound tissue): −0.3032
fold change of Marapsin (mean, wound tissue): −0.0476
fold change of Neprilysin (mean, wound tissue): −0.2555
fold change of OPG (mean, wound tissue): −0.2142
fold change of OPN (mean, wound tissue): −0.2307
fold change of P-selectin (mean, wound tissue): −0.4006
fold change of PDGF-AA (mean, wound tissue): −0.4666
fold change of PF4 (mean, wound tissue): −0.7429
fold change of Pentraxin 3 (mean, wound tissue): −0.7179
fold change of Persephin (mean, wound tissue): −0.3386
fold change of Pro-MMP-9 (mean, wound tissue): 0.0213
fold change of Prolactin (mean, wound tissue): 0.2852
fold change of RAGE (mean, wound tissue): −0.0350
fold change of RANTES (mean, wound tissue): −0.4249
fold change of Resistin (mean, wound tissue): −0.3623
fold change of SCF (mean, wound tissue): 0.1915
fold change of SDF-1a (mean, wound tissue): −0.0807
fold change of SLAM (mean, wound tissue): −0.0883
fold change of Shh-N (mean, wound tissue): −0.1527
fold change of TACI (mean, wound tissue): −0.2636
fold change of TARC (mean, wound tissue): −0.4322
fold change of TCA-3 (mean, wound tissue): −0.2756
fold change of TCK-1 (mean, wound tissue): −0.4843
fold change of TECK (mean, wound tissue): 0.1734
fold change of TGFb1 (mean, wound tissue): −0.1570
fold change of TNF RI (mean, wound tissue): −0.2939
fold change of TNF RII (mean, wound tissue): −0.1233
fold change of TNFα (mean, wound tissue): 0.1039
fold change of TPO (mean, wound tissue): −0.0215
fold change of TRANCE (mean, wound tissue): 0.0878
fold change of TREM-1 (mean, wound tissue): 0.0703
fold change of TROY (mean, wound tissue): −0.0721
fold change of TSLP (mean, wound tissue): −0.1726
fold change of TWEAK (mean, wound tissue): −0.1667
fold change of TWEAK R (mean, wound tissue): −0.4445
fold change of TremL1 (mean, wound tissue): −0.2695
fold change of VCAM-1 (mean, wound tissue): −0.1357
fold change of VEGF (mean, wound tissue): −0.0295
fold change of VEGF R1 (mean, wound tissue): −0.4184
fold change of VEGF R3 (mean, wound tissue): −0.0705
fold change of VEGF-B (mean, wound tissue): −0.0693
fold change of VEGF-D (mean, wound tissue): −0.0146
fold change of bFGF (mean, wound tissue): −0.2542
fold change of gp130 (mean, wound tissue): 0.1048
fold change of sFRP-3 (mean, wound tissue): −0.1892
